According to US20080268460A1, “Assays to Identify Irreversibly Binding Inhibitors of Receptor Tyrosine Kinases” (Wyeth, priority 2004, published 2008):

How the values were obtained:
Assay type in all cases: biochemical
[1] = molecular target: T1, KDR-IC-FLAG (human KDR, VEGF-receptor 2) (Homo sapiens, UniProt P35968); test: KDR kinase enzyme assay (DELFIA) using KDR-IC-FLAG kinase, no wash-out; details: 10 uM ATP
T1 construct: starting at Met-806 (underlined) (5′-ATGGATCCAGATGAACTCCCATTG) and ending at Val-1356; made in house
T1 sequence (P35968 806-1356): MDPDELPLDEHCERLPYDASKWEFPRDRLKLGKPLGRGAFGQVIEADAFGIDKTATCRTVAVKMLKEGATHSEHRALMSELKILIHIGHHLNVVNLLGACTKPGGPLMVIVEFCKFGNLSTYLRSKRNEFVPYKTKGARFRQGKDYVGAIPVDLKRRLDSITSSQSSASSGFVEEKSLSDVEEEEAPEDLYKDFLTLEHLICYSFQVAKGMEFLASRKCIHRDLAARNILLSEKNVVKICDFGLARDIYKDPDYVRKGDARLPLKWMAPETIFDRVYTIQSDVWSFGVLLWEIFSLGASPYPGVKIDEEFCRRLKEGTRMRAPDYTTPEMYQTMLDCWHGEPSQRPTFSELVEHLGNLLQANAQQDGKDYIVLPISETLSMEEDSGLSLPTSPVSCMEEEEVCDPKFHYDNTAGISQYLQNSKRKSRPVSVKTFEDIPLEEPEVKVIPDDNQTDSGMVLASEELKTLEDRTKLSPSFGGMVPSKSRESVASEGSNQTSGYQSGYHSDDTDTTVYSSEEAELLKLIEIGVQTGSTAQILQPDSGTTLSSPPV
Source text: Controls were done by adding DMSO alone, i.e., no test compound, to wells containing the master mix of enzyme plus kinase buffer.

[2] = molecular target: T2, KDR-FLAG enzyme (human KDR) (Homo sapiens, UniProt P35968); test: Enzyme wash-out assay, KDR-FLAG enzyme; details: plate washed three times before ATP addition
T2 construct: starting at Met-806 (underlined) (5′-ATGGATCCAGATGAACTCCCATTG) and ending at Val-1356; made in house
T2 sequence (P35968 806-1356): as the sequence (P35968 806-1356) above
Description: (§1) Parallel plates were tested for each test compound wherein one plate was processed as described above in section 6.3 and the second plate was washed three times in 100 ul of 4 mM HEPES, pH 7.4, to remove unbound compound. 1× kinase buffer (30 ul 1 mM MnCl2, 4 mM HEPES, pH 7.4, 20 μM Na3VO4) and 20 ul of ATP/MgCl2 were then added to the wash-out plate. The KDR-FLAG enzyme, as described in 6.1, was used in these assays.

KDR wild type enzyme [3] = molecular target: T3, KDR wild type enzyme (Homo sapiens, UniProt P35968); test: Basic enzyme assay, KDR wild type (GST-His-KDR-IC); details: mean ± standard deviation (N)
T3 construct: beginning at Val-805 (forward, 5′ tag cgg ccg cGT CATGGATCCAGATGAACTCCCATT (lower case—NotI site)) and ending at Val-1356; GST-His (thrombin cleavage site) (N, cleaved yes); made in house; HEK293 possible
T3 sequence (P35968 805-1356): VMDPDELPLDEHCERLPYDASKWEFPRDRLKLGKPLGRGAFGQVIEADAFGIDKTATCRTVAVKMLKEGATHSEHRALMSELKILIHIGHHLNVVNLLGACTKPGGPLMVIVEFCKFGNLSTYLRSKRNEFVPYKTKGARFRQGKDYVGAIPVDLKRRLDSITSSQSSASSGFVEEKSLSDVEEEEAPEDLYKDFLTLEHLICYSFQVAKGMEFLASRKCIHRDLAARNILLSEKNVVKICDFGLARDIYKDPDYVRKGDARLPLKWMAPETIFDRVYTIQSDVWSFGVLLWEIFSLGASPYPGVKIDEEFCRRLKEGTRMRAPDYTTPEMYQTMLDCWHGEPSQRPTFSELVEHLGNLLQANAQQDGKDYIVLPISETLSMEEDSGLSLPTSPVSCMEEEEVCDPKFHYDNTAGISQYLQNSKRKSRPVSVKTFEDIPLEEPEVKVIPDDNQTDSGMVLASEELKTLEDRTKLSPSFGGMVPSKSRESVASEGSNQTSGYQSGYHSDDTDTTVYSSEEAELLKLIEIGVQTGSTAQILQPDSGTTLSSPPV
Description: (§2) This mutated protein was designated KDR-C1045A. Additionally, for comparison, the test compounds were assayed using the KDR wild type enzyme in both a basic enzyme assay as well as the enzyme wash-out assay.

KDR wild type enzyme [4] = molecular target: T3, KDR wild type enzyme; test: Enzyme wash-out assay, KDR wild type
Description: as §1, §2

KDR-C1045A [5] = molecular target: T4, KDR-C1045A (Homo sapiens, UniProt P35968, C1045A); test: Basic enzyme assay, KDR-C1045A mutant enzyme
T4 construct: beginning at Val-805 (forward, 5′ tag cgg ccg cGT CATGGATCCAGATGAACTCCCATT (lower case—NotI site)) and ending at Val-1356; GST-His (thrombin cleavage site) (N); made in house; the mutant was also made in HEK293
T4 sequence (P35968 805-1356 C1045A): as the sequence (P35968 805-1356) above, with C241A counted along it
Description: (§3) The protein was expressed in HEK293 or Sf9 cells as described for the wild type protein in sections 6.1 and 6.2. The protein was also purified using the FLAG or GST/His tags.
as §2

KDR-C1045A [6] = molecular target: T4, KDR-C1045A; test: Enzyme wash-out assay, KDR-C1045A mutant enzyme
Description: as §1, §3, §2

Row | Structure (SMILES) | IC50 [1] [nM] | IC50 [2] [nM] | IC50 (KDR wild type enzyme [3]) [µM] | loss of activity upon wash out, wild type KDR (KDR wild type enzyme [4]; wash out vs no wash out) | IC50 (KDR wild type enzyme [4]; wash out, mean ± standard deviation (N)) [µM] | loss of activity, mutant versus wild type KDR in basic enzyme assay (KDR-C1045A [5]; KDR-C1045A vs wild type) | IC50 (KDR-C1045A [5]; mean ± standard deviation (N)) [µM] | KDR-C1045A, WASH OUT percent inhibition at the high dose tested (KDR-C1045A [6]; high dose tested) [%] | IC50 (KDR-C1045A [6]; mean ± standard deviation (N)) [µM]
1 | COCCOc1cc2ncnc(NC3=C(Sc4nccs4)C(=O)C=C(OC)C3=O)c2cc1OC [5-methoxy-3-{[6-methoxy-7-(2-methoxyethoxy)quinazolin-4-yl]amino}-2-(1,3-thiazoylthio)benzo-1,4-quinone] | 17.9 | 33.1 |  |  |  |  |  |  | 
2 | COc1cc2c(Oc3ccc4[nH]c(C)cc4c3F)c(C#N)cnc2cc1OCC1CCN(C)CC1 [4-[(4-fluoro-2-methyl-1H-indol-5-yl)oxy]-6-methoxy-7-[(1-methylpiperidin-4-yl)methoxy]quinoline-3-carbonitrile] |  |  | 0.0632 ± 0.0235 | partially washed out | 0.277 | less than a five times loss of activity | 0.301 ± 0.14 | 33 | > 1
